Test results reported in patent US7429460B2, “Methods of screening for inhibitors of phospholipid synthesis related to glycolipid-storage diseases” (Yeda Research and Development Co., Ltd., priority 2003, dated 2008).

What was measured:
purified rat brain CCT = experiment: CCT assay with purified rat brain CCT and liposomes; type: biochemical
Procedure: (§1) CCT was assayed as described (Weinhold P A and Feldman D A. 1992. Choline-phosphate cytidylyltransferase. Methods Enzymol. 209, 248-258), with some minor modifications. The assay was performed in a final volume of 200 μl containing 1.6 mM phosphorylcholine/0.25 μCi [^14C]methyl phosphorylcholine, 3 mM CTP, 12 mM magnesium acetate, and DOPC liposomes with or without oleic acid and GicCer or GalCer, as indicated in the figure legends. Liposomes were prepared by sonicating resuspended lipids in the assay buffer at room temperature for 3 min using a sonicator (Sonics & Materials Inc., Newtown, Conn.) fitted with a micro-tip probe set to 750 W output, using 25% of the maximal amplitude and with pulsations of 9.0 sec every 9.2 sec, which gave a translucent liposome preparation with no precipitates. The final concentration of DOPC and oleic acid in the liposomes was 500 μM each. The reaction was terminated after 25 min at 37° C. by addition of 200 μl of 150 mM phosphorylcholine in 10% trichloroacetic acid. CDP-choline was recovered by addition of 2 ml of 6% charcoal in water (w/v). After 30 min at room temperature the charcoal suspension was washed 4 times with water and centrifuged at 1,000 gav for 10 min. The aqueous supernatants were removed and CDP-choline was eluted from the charcoal with 3 washes of water/ethanol/28% NH4OH (116:188:11, v/v/v). Eluates were pooled and evaporated to dryness under N2. Phosphorylcholine and CDP-choline were added to the tubes and the samples separated by TLC using 0.9% NaCl/methanol/28% NE4OH (50:70:5, v/v/v) as the developing solvent. Metabolites were identified by iodine, and the CDP-choline spot was scraped into scintillation vials for scintillation counting.
Rat brain CCT was purified by a method similar to that described for rat liver (Weinhold and Feldman, supra; Weinhold P A Rounsifer M E and Feldman D A. 1986. The purification and characterization of CTP:phosphorylcholine cytidylyltransferase from rat liver. J Biol Chem 261:5104-5110). Rat brains (11 g) were isolated from 8-10-week old rats and homogenized in 51 ml of buffer A (50 mM Tris-HCl pH 7.4, 150 mM NaCl, 1 mM EDTA, 2 mM dithiothreitol, 0.025% (w/v) sodium azide, 1 mM phenylmethylsulfonylfluoride). Brain cytosol was prepared by collecting the supernatants obtained after two sequential centrifugation steps at 10,000 gav for 20 min, and 100,000 gav for 1 h. The protein concentration of the cytosol was adjusted to 6 mg/ml with buffer A, egg yolk PC/oleic acid liposomes were added, followed by acid precipitation. The precipitate was re-suspended in 54 ml of buffer A containing 20 mM n-octyl-β-D-glucopyranoside and 1 mM phenylmethylsulfonylfluoride for 30 min at room temperature. After centrifugation (10,000 gav, 20 min), the n-octyl-β-D-glucopyranoside extract was loaded onto a DEAE-sepharose CL-6B column that had been previously packed and equilibrated with 300 ml of buffer A. All elution procedures were performed using a flow rate of 40 ml/h. The column was successively washed with 100 ml of buffer A, 300 ml of a gradient of 150 mM to 300 mM NaCl in buffer B (50 mM Tris-HCl pH 7.4, 1 mM EDTA, 2 mM dithiothreitol, 0.025% (w/v) sodium azide), and 150 ml of buffer B containing 300 mM NaCl. CCT was eluted with 70 ml of buffer B containing 400 mM NaCl and 50 mM n-octyl-β-D-glucopyranoside.
The fractions containing CCT activity were pooled, diluted with 4 volumes of buffer A and loaded onto a HTP gel hydroxyapatite column (BioRad) that had previously been equilibrated with 200 ml of buffer A. Elutions were performed at flow rates of 20 ml/hour. […]

[1] = tested on: CTP:phosphocholine cytidylyltransferase (CCT); experiment: CCT assay in homogenates of treated hippocampal neurons; type: cell-based, rat; settings: 50 μM PDMP
Procedure: (§2) Neurons from individual cover slips were washed twice with ice-cold phosphate-buffered saline, and cells removed by scraping into 300 μl of buffer containing 50 mM imidazole, 2 mM EDTA, 150 mM KCl, 6 mM ADP, 0.2 mM phenylmethylsulfonylfluoride, 1 μg/ml pepstatin and 1 μg/ml leupeptin. After brief sonication, an aliquot was removed for DNA determination and 100 μl was used for the CCT assay.
CCT was assayed as described (Weinhold P A and Feldman D A. 1992. Choline-phosphate cytidylyltransferase. Methods Enzymol. 209, 248-258), with some minor modifications. The assay was performed in a final volume of 200 μl containing 1.6 mM phosphorylcholine/0.25 μCi [^14C]methyl phosphorylcholine, 3 mM CTP, 12 mM magnesium acetate, and DOPC liposomes with or without oleic acid and GicCer or GalCer, as indicated in the figure legends. Liposomes were prepared by sonicating resuspended lipids in the assay buffer at room temperature for 3 min using a sonicator (Sonics & Materials Inc., Newtown, Conn.) fitted with a micro-tip probe set to 750 W output, using 25% of the maximal amplitude and with pulsations of 9.0 sec every 9.2 sec, which gave a translucent liposome preparation with no precipitates. The final concentration of DOPC and oleic acid in the liposomes was 500 μM each. […]

rat hippocampal neurons = settings: 50 μM PDMP; cited from earlier work
[2] = tested on: CTP:phosphocholine cytidylyltransferase (CCT); experiment: CCT assay in hippocampal neuron homogenates with substance added to the assay mixture; type: biochemical, rat; settings: 0.5 mM DOPC/0.5 mM oleic acid/0.3 mM sphingolipid or lyso-sphingolipid; 8-day-old neurons
Procedure: as §2, §1
CCT activity was assayed in homogenates prepared from 8-day-old normal rat hippocampal neurons as described herein above. The reaction mixture comprised 0.5 mM DOPC/0.5 mM oleic acid/0.3 mM sphingolipid or lyso-sphingolipid. CCT activity with each sphingolipid or lyso-sphingolipid was measured twice. Basal CCT activity differed by ˜20% between the two experiments; however, the extent of activation or inhibition of CT activity was similar for each sphingolipid and lyso-sphingolipid.

[3] = tested on: CTP:phosphocholine cytidylyltransferase (CCT); experiment: CCT assay in rat brain cortical homogenates with liposomes; type: biochemical; settings: DOPC liposomes, 200 μM; for CCT activity: 8.9±1.0 without lipid
[4] = tested on: CTP:phosphocholine cytidylyltransferase (CCT); experiment: as above; type: biochemical
Procedure: as §1
When CCT was assayed in rat or mouse brain cortical homogenates (1 g tissue/12.5 ml of buffer), the homogenate was first centrifuged (200 gav, 20 min) to remove cell debris. The homogenate was diluted with assay buffer to give a final concentration of 200 μg protein/ml. CCT activity was also assayed using purified rat brain CCT (see below).

[5] = liposomes of DOPC and oleic acid

| Compound | effect on CCT activity [2] | effect of exogenously-added lipid on CCT activity [4] | also measured |
| --- | --- | --- | --- |
| CCCCCCCC/C=C\CCCCCCCC(=O)O [oleic acid] |  |  | CCT activity in DOPC/oleic acid liposomes versus DOPC liposomes alone (purified rat brain CCT; DOPC/oleic acid liposomes): ~10 fold |
| CCCCCCCCCC(=O)N[C@H](CN1CCOCC1)[C@H](O)c1ccccc1 [PDMP, D-threo-1-phenyl-2-decanoyl-amino-3-morpholino-1-propanol] |  |  | CCT activity after treatment of neurons [1]: significant reduction; rate of axonal growth (rat hippocampal neurons): reduction |
| glucosylceramide [GlcCer] | activated |  | increase in the rate of CDP-choline synthesis [3]: > 2 fold; effect on CCT activity [4, 5]: increased CCT activity; activation of CCT at the lowest concentration (purified rat brain CCT; DOPC liposomes, 2.5 mole percent): significant activation; maximal activation of CCT (purified rat brain CCT; DOPC liposomes, 10 mole percent): 3-4 fold; effect on CCT activity (purified rat brain CCT; DOPC/oleic acid liposomes): small but significant increase |
| CCCCCCCCCCCCCC=CC(O)C(COC1OC(CO)C(O)C(O)C1O)NC(=O)CCCCCCC (centres unmarked) [C8-GalCer] |  |  | CCT activity [3]: 9.1±0.8 nmol/min/mg of protein |
| CCCCCCCCCCCCC/C=C/[C@@H](O)[C@@H](N)CO [sphingosine] | inhibited |  |  |
| lactosylceramide | inhibited | did not increase CCT activity |  |
| CCCCCCCCCCCCC/C=C/[C@@H](O)[C@@H](N)CO[C@@H]1O[C@H](CO)[C@@H](O)[C@H](O)[C@H]1O [glucosylsphingosine] | No significant effect | no elevation of activity |  |
| CCCCCCCCCCCCC/C=C/[C@@H](O)[C@@H](N)CO[C@@H]1O[C@H](CO)[C@H](O)[C@H](O)[C@H]1O [galactosylsphingosine] | No significant effect | no elevation of activity |  |
| CCCCCCCCCCCCC/C=C/[C@@H](O)C(N)CO[C@H]1O[C@H](CO)[C@@H](O[C@@H]2O[C@H](CO)[C@H](O)[C@H](O)[C@H]2O)[C@H](O)[C@@H]1O (some centres unmarked) [lactosylsphingosine] | inhibited |  |  |
| galactosylceramide [GalCer] | no significant effect |  | effect on CCT activity ([4]; DOPC liposomes): did not affect; effect on CCT activity [4, 5]: had no effect; effect on purified CCT (purified rat brain CCT; DOPC liposomes): no significant effect; effect on CCT activity (purified rat brain CCT; DOPC/oleic acid liposomes): no significant effect |
| CCCCCCCCCCCCC/C=C/[C@@H](O)[C@@H](N)COP(=O)([O-])OCC[N+](C)(C)C [lysosphingomyelin] | inhibited |  |  |
| sphingomyelin [SM] | inhibited | did not increase CCT activity |  |
| CCCCCCCCCCCCC/C=C/[C@@H](O)[C@H](COC1OC(CO)C(O)C(O)C1O)NC(=O)CCCCCCC (some centres unmarked) [C8-GlcCer] |  |  | CCT activity [3]: 25.9±4.4 nmol/min/mg of protein |
| ceramide | inhibited | did not increase CCT activity |  |
